Results from patent US20010039287A1, “AROMATIC SULFONE HYDROXAMIC ACID METALLOPROTEASE INHIBITOR” (priority 1997, published 2001).
Counter-ions that a name gives are not always drawn. Like-named read-outs stand apart in the source and are kept apart here.

How the values were obtained:
[1] = design: AUC (0-∞): unit not given beside the values; details: for t½ Hour: Rat Intravenous 20 mpk
[2] = system: TNFα; test: Tumor necrosis factor assay: TNFα ELISA on PMA-stimulated U-937 cell supernatant; details: Homo sapiens, U-937, read-out: TNFα Release IC50 in micromolar
[3] = target: T1, recombinant human MMP-2 (Homo sapiens, UniProt P08253); test: biochemical
T1 sequence (P08253 110-660): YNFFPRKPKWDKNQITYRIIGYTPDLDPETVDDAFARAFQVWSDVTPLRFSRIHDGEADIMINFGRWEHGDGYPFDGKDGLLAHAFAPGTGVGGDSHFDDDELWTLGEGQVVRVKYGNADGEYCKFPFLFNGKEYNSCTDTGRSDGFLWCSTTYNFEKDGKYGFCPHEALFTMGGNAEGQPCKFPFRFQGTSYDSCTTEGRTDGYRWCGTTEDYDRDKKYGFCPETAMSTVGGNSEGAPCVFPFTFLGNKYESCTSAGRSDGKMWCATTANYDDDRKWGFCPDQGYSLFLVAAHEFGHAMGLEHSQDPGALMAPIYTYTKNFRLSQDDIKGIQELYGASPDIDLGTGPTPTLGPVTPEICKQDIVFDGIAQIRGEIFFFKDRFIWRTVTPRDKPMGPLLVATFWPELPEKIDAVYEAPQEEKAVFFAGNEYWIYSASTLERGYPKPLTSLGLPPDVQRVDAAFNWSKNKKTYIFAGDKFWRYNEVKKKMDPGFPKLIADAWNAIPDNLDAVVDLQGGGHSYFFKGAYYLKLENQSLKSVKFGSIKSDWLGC

[4] = target: recombinant human MMP-13 (Homo sapiens, UniProt P45452); test: biochemical
[5] = target: T2, recombinant human MMP-1 (Homo sapiens, UniProt P03956); test: biochemical
T2 construct: made in house; host or cells: transfected HT-1080 cells (provided by Dr. Harold Welgus, Washington University)
T2 sequence (P03956 100-469): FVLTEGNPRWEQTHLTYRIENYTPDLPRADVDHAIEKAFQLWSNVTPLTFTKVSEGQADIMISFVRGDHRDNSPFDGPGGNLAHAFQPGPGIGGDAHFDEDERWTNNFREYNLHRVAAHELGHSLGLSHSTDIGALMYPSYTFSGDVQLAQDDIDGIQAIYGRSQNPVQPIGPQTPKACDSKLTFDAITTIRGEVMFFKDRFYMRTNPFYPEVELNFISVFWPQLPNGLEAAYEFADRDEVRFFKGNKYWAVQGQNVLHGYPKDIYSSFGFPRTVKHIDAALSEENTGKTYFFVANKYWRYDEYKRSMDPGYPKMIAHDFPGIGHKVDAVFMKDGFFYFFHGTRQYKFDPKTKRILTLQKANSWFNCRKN

[6] = target: recombinant human MMP-9 (Homo sapiens, UniProt P14780); test: biochemical; details: read-out: MMP-9 IC50
[7] = Inhibition Table A, read-out: MMP-2 IC50
[8] = Inhibition Table A, read-out: MMP-13 IC50
[9] = Inhibition Table A, read-out: MMP-1 IC50
[10] = Inhibition Table B, read-out: MMP-2 IC50
[11] = Inhibition Table B, read-out: MMP-13 IC50
[12] = Inhibition Table B, read-out: MMP-1 IC50

Chain of recombinant human MMP-9 (P14780 107-707 limits assumed): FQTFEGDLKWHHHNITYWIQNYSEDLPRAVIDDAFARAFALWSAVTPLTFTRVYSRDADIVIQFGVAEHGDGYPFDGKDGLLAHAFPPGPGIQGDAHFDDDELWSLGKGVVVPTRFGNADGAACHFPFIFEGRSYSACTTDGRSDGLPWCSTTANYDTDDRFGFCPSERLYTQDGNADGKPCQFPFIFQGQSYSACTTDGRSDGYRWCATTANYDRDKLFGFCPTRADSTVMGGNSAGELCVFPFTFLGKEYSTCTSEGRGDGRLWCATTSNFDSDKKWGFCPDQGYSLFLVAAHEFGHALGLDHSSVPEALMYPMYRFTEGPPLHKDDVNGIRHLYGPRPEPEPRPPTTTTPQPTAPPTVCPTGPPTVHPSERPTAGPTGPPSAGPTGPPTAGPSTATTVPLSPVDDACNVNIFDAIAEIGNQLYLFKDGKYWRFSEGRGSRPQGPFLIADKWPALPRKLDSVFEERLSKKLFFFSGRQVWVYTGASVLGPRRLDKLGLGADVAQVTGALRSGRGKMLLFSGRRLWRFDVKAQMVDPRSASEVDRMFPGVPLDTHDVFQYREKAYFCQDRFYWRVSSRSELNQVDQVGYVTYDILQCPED

| Compound | t½ Hour [1] [h] | IC50 [2] [µM] | IC50 ([6]; Inhibition Table B) [nM] | IC50 [3, 10] [nM] | IC50 [4, 11] [nM] | IC50 [5, 12] [nM] | also measured |
| --- | --- | --- | --- | --- | --- | --- | --- |
| O=C(NO)C1(S(=O)(=O)c2ccc(Oc3ccc(C(F)(F)F)cc3)cc2)CCOCC1 [Example 379] | 1.74 | 80 |  |  |  |  |  |
| O=C(NO)C1(S(=O)(=O)c2ccc(Oc3ccc(OC(F)(F)F)cc3)cc2)CCOCC1 [Example 69] |  | > 80 |  |  |  |  | AUC (0-∞) ([1]; rat, in vivo): 63.78; Blood Level @ 3 min ([1]; rat, in vivo): 44000 ng/mL; Blood Level @ 3 min ([1]; rat, in vivo, iv, 20 mg/kg): 44000 ng/mL |
| C#CCN1CCC(C(=O)NO)(S(=O)(=O)c2ccc(Oc3ccccc3)cc2)CC1 [Example 6] |  | > 50 |  |  |  |  | IC50 [3, 7]: 0.15 nM; IC50 [4, 8]: 0.25 nM; IC50 [5, 9]: 327 nM |
| O=C(NO)C1(S(=O)(=O)c2ccc(Oc3ccccc3)cc2)CCNCC1 [Example 4] |  | > 50 |  |  |  |  | IC50 ([6]; Inhibition Table A): 5 nM; IC50 [3, 7]: 0.23 nM; IC50 [4, 8]: 0.35 nM; IC50 [5, 9]: 1090 nM |
| C#CCN1CCC(C(=O)NO)(S(=O)(=O)c2ccc(Sc3ccccc3)cc2)CC1 [Example 9] |  | > 50 |  |  |  |  | IC50 [3, 7]: 0.2 nM; IC50 [5, 9]: 9000 nM |
| O=C(NO)C1(S(=O)(=O)c2ccc(Sc3ccccc3)cc2)CCOCC1 [Example 95, Tetrahydro-N-hydroxy-4-[[4-(phenylthio)phenyl]sulfonyl]-2H-pyran-4-carboxamide] | 1.06 | > 50 | 3.6 | 1 | 0.5 | > 10000 |  |
| C#CCN1CCC(C(=O)NO)(S(=O)(=O)c2ccc(SC3CCCCC3)cc2)CC1 [Example 13] |  | > 50 |  |  |  |  | IC50 [3, 7]: 0.4 nM; IC50 [4, 8]: 0.6 nM |
| O=C(NO)C1(S(=O)(=O)c2ccc(Sc3ccc(F)cc3)cc2)CCOCC1 [Example 103, 4-[[4-[(4-fluorophenyl)-thio]phenyl]sulfonyl]tetrahydro-N-hydroxy-2H-pyran-4-carboxamide] | 1.10 |  | 10 | 0.8 | 0.7 | > 10000 |  |
| CC(=O)N1CCC(C(=O)NO)(S(=O)(=O)c2ccc(Sc3ccccc3)cc2)CC1.Cl [Example 36, 1-acetyl-N-hydroxy-4-[[4-(phenylthio)phenyl]sulfonyl]-4-piperidinecarboxamide, Monohydrochloride] | 0.65 |  | 8 | 0.4 | 0.6 | 7300 |  |
| COCCN1CCC(C(=O)NO)(S(=O)(=O)c2ccc(Sc3ccccc3)cc2)CC1 [Example 35, N—hydroxy-1-(2-methoxyethyl)-4-[[4-(phenylthio)phenyl]-sulfonyl]-4-piperidinecarboxamide, Monohydrochloride] |  | > 80 | 3 | 0.3 | 0.5 | > 10000 |  |
| CC(C)c1ccc(Oc2ccc(S(=O)(=O)C3(C(=O)NO)CCOCC3)cc2)cc1 [Example 125] | 0.73 |  | 7 | 0.4 | 0.5 | > 10000 |  |
| O=C(O)CNc1ccc(Oc2ccc(S(=O)(=O)C3(C(=O)NO)CCSCC3)cc2)cc1 [Example 117, tetrahydro-N-hydroxy-4-[[4-[4-hydroxyphenyl Glycine)]phenyl] Sulfonyl 2H-thiopyran-4-carboxamide] | 0.78 |  | 45.4 | 0.6 | 4.8 | 3700 |  |
| O=C(NO)C1(S(=O)(=O)c2ccc(Sc3ccc(OC(F)(F)F)cc3)cc2)CCOCC1 [Example 73, tetrahydro-N-hydroxy-4-[[4-[4-(trifluoromethoxy)phenylthio]-phenyl]-sulfonyl]-2H-pyran-4-carboxamide] |  |  | 0.2 |  |  | 1140 | Blood Level @ 6 hr ([1]; rat, in vivo, po, 20 mg/kg): 372 ng/mL; IC50 ([3]; MMP-2 IC50 (nM)): < 0.1 nM; IC50 [4]: < 0.1 nM |
| CN1CCC(C(=O)NO)(S(=O)(=O)c2ccc(Sc3ccccc3)cc2)CC1.Cl [Example 33, N-hydroxy-1-methyl-4-[[4-(phenylthio)phenyl]sulfonyl]-4-piperidinecarboxamide, Monohydrochloride] | 1.91 |  | 9.4 | 0.5 | 0.8 |  | IC50 [5]: > 10000 nM |
| NCC(=O)Nc1ccc(Sc2ccc(S(=O)(=O)C3(C(=O)NO)CCSCC3)cc2)cc1 [Example 118, tetrahydro-N-hydroxy-4-[[4-[4-hydroxyphenylglycine))phenyl] Sulfonyl 2H-thiopyran-4-carboxamide] | 1.85 |  | 50 | 0.3 | 0.8 | 2850 |  |
| Cl.O=C(NO)C1(S(=O)(=O)c2ccc(Oc3ccc(-n4cncn4)cc3)cc2)CCS(=O)(=O)CC1 [Example 53, Tetrahydro-N-hydroxy-4-[[4-[4-(1H-1,2,4-triazol-1-yl)phenoxy]-phenyl]-sulfonyl]-2H-thiopyran-4-carboxamide 1,1-dioxide, Monohydrochloride] | 0.97 |  | 92 | 0.3 | 1.5 | > 10000 |  |
| O=C(NO)C1(S(=O)(=O)c2ccc(Sc3ccc(F)cc3)cc2)CCN(C2CC2)CC1 [Example 27] |  | > 80 |  |  |  |  | IC50 ([6]; Inhibition Table A): 4 nM; IC50 [3, 7]: 0.4 nM; IC50 [4, 8]: 0.45 nM; IC50 [5, 9]: > 10000 nM |
| Cl.O=C(NO)C1(S(=O)(=O)c2ccc(Oc3ccc(Cl)cc3)cc2)CCNCC1 [Example 93, 4-[[4-(4-chlorophenoxy)-phenyl]sulfonyl]-N-hydroxy-4-piperidinecarboxamide, Monohydrochloride] | 1.81 |  | 3.5 | 0.4 | 0.7 | 8000 |  |
| C#CCN1CCC(C(=O)NO)(S(=O)(=O)c2ccc(Oc3ccc4c(c3)OCO4)cc2)CC1 [Example 10] |  | > 50 |  |  |  |  | IC50 [4, 8]: 0.4 nM; IC50 [5, 9]: 1600 nM |
